From PubChem BioAssay AID1963980 (Molecular Pharmacology Branch, DTP, NCI, 2024) come the findings set out here.

This assay has as its system 475296-252-R-J1-PDC spheroid viability. Nature of the assay: Anticancer human tumor 475296-252-R-J1-PDC patient-derived rectal carcinoma cell line growth inhibition [PI3K]. The settings on record: spheroids with HUVEC and MSC; for viability, T/C: stronger effect = lower value. In short, it runs like this: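 Viability of mixed-cell spheroids was determined after exposure to pairwise combinations, one partner being inavolisib, alpelisib, duvelisib or copanlisib. Highest tested concentration matched clinical Cmax where known and 10 microM where not, descending in half-log steps.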

Setting [1] is: curve of first compound, second compound 0.0316 µM.
Setting [2] is: curve of first compound, second compound 0.1 µM.
The mark [3] stands for this setting: curve of first compound, second compound 0.316 µM.
The mark [4] stands for this setting: curve of first compound, second compound 1 µM.
Where [5] appears, read: second compound 0.0316 µM, first compound 0.0316 µM.
[6] abbreviates: second compound 0.0316 µM, first compound 0.1 µM.
[7] abbreviates: second compound 0.0316 µM, first compound 0.316 µM.
Where [8] appears, read: second compound 0.0316 µM, first compound 1 µM.
Setting [9] is: second compound 0.0316 µM, first compound 3.16 µM.
Where [10] appears, read: second compound 0.0316 µM, first compound 10 µM.
Where [11] appears, read: second compound 0.1 µM, first compound 0.0316 µM.
The mark [12] stands for this setting: second compound 0.1 µM, first compound 0.1 µM.
Setting [13] is: second compound 0.1 µM, first compound 0.316 µM.
Where [14] appears, read: second compound 0.1 µM, first compound 1 µM.
Where [15] appears, read: second compound 0.1 µM, first compound 3.16 µM.
Setting [16] is: second compound 0.1 µM, first compound 10 µM.
Where [17] appears, read: second compound 0.316 µM, first compound 0.0316 µM.
Setting [18] is: second compound 0.316 µM, first compound 0.1 µM.
[19] abbreviates: second compound 0.316 µM, first compound 0.316 µM.
Setting [20] is: second compound 0.316 µM, first compound 1 µM.
[21] abbreviates: second compound 0.316 µM, first compound 3.16 µM.
Setting [22] is: second compound 0.316 µM, first compound 10 µM.
Where [23] appears, read: second compound 1 µM, first compound 0.0316 µM.
Setting [24] is: second compound 1 µM, first compound 0.1 µM.
Where [25] appears, read: second compound 1 µM, first compound 0.316 µM.
[26] abbreviates: second compound 1 µM, first compound 1 µM.
The mark [27] stands for this setting: second compound 1 µM, first compound 3.16 µM.
The mark [28] stands for this setting: second compound 1 µM, first compound 10 µM.

Structures are written as SMILES. “And” between values parts separate entries of the source, which are not always exact repeats. Equal entries are not always repeated.

What is called IC50 is the concentration that inhibits the measured activity by half. The term viability, T/C denotes the result in the treated group divided by that in the control group, in per cent.
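Further: spheroids exposed to agents for seven days before readout.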

On to `CC(C)NCC(C(=O)N1CCN(c2ncnc3c2C(C)CC3O)CC1)c1ccc(Cl)cc1` (stereo not drawn) + COc1c(OCCCN2CCOCC2)ccc2c3n(c(=NC(=O)c4cnc(N)nc4)nc12)CCN3, for which the IC50 runs as follows: (curve of first compound, second compound 0.00316 µM) over 10 µM; (curve of first compound, second compound 0.01 µM) over 10 µM; under setting [1], over 10 µM; under setting [2], over 10 µM; under setting [3], over 10 µM; under setting [4], 6.18 µM. Also, the viability, T/C runs as follows: (second compound 0.00316 µM, first compound 0.0316 µM) 98.5%; (second compound 0.00316 µM, first compound 0.1 µM) 94.5%; (second compound 0.00316 µM, first compound 0.316 µM) 94.1%; (second compound 0.00316 µM, first compound 1 µM) 92.2%; (second compound 0.00316 µM, first compound 3.16 µM) 67.2%; (second compound 0.00316 µM, first compound 10 µM) 55.1%. For the same compound, the viability, T/C (second compound 0.01 µM, first compound 0.0316 µM) was 106%; the viability, T/C (second compound 0.01 µM, first compound 0.1 µM) was 99%; the viability, T/C (second compound 0.01 µM, first compound 0.316 µM) was 96.5%; the viability, T/C (second compound 0.01 µM, first compound 1 µM) was 84.7%; the viability, T/C (second compound 0.01 µM, first compound 3.16 µM) is 65.6%; the viability, T/C (second compound 0.01 µM, first compound 10 µM) was 60%. The viability, T/C is 108% under setting [5]; 102% under setting [6]; 87.2% under setting [7]; 79.5% under setting [8]; 77% under setting [9]; 78.2% under setting [10]. Besides, the viability, T/C is 92.8% under setting [11]; 77.9% under setting [12]; 87.6% under setting [13]; 72.1% under setting [14]; 75.2% under setting [15]; 62% under setting [16]. For the same compound, the viability, T/C was 68.6% under setting [17]; 75% under setting [18]; 70.2% under setting [19]; 71.4% under setting [20]; 62.7% under setting [21]; 59.7% under setting [22]. Moreover, the viability, T/C was 60.4% under setting [23]; 56% under setting [24]; 67% under setting [25]; 63.5% under setting [26]; 55.8% under setting [27]; 38.2% under setting [28].

Regarding `CC1(C)CCC(CN2CCN(c3ccc(C(=O)NS(=O)(=O)c4ccc(NCC5CCOCC5)c([N+](=O)[O-])c4)c(Oc4cnc5[nH]ccc5c4)c3)CC2)=C(c2ccc(Cl)cc2)C1` + CC(Nc1ncnc2nc[nH]c12)c1cc2cccc(Cl)c2c(=O)n1-c1ccccc1, the IC50 was over 10 µM under setting [1]; over 10 µM under setting [2]; over 10 µM under setting [3]; over 10 µM under setting [4]; over 10 µM (curve of first compound, second compound 3.16 µM); over 10 µM (curve of first compound, second compound 10 µM). The viability, T/C reads like this: under setting [5], 102%; under setting [6], 99.1%; under setting [7], 91.2%; under setting [8], 104%; under setting [9], 107%; under setting [10], 84.2%. Also, the viability, T/C is 107% under setting [11]; 93.8% under setting [12]; 98.8% under setting [13]; 99.7% under setting [14]; 106% under setting [15]; 99% under setting [16]. Further, the viability, T/C is, setting by setting: under setting [17], 120%; under setting [18], 95.4%; under setting [19], 97.9%; under setting [20], 95%; under setting [21], 86.4%; under setting [22], 94.3%. In addition, the viability, T/C is, setting by setting: under setting [23], 86.6%; under setting [24], 104%; under setting [25], 98.9%; under setting [26], 101%; under setting [27], 91.8%; under setting [28], 91.7%. Also, the viability, T/C was 93.2% (second compound 3.16 µM, first compound 0.0316 µM); 99.4% (second compound 3.16 µM, first compound 0.1 µM); 95.1% (second compound 3.16 µM, first compound 0.316 µM); 87.6% (second compound 3.16 µM, first compound 1 µM); 96.9% (second compound 3.16 µM, first compound 3.16 µM); 95.6% (second compound 3.16 µM, first compound 10 µM). For the same compound, the viability, T/C runs as follows: (second compound 10 µM, first compound 0.0316 µM) 78.5%; (second compound 10 µM, first compound 0.1 µM) 91.7%; (second compound 10 µM, first compound 0.316 µM) 92%; (second compound 10 µM, first compound 1 µM) 88.9%; (second compound 10 µM, first compound 3.16 µM) 90.6%; (second compound 10 µM, first compound 10 µM) 81.3%.

For the compound `CNC(=O)c1ccc(N2C(=S)N(c3ccc(C#N)c(C(F)(F)F)c3)C(=O)C2(C)C)cc1F`, the viability, T/C (compound 0.1 µM) was 100% [middle of 4 runs]; the viability, T/C (compound 0.316 µM) was 96.5% [middle of 4 runs]; the viability, T/C (compound 1 µM) was 99.5% [middle of 4 runs]; the viability, T/C (compound 3.16 µM) was 102% [middle of 4 runs]; the viability, T/C (compound 10 µM) was 98.3% [middle of 4 runs]. Also, the IC50 (curve of compound) is over 10 µM.

With `C#Cc1c(F)ccc2cc(O)cc(-c3ncc4c(N5CC6CCC(C5)N6)nc(OCC56CCCN5CC(F)C6)nc4c3F)c12` (stereo not drawn), the viability, T/C (compound 0.0316 µM) was 95.9% [middle of 4 runs]; the viability, T/C (compound 0.1 µM) was 90.9% [middle of 4 runs]; the viability, T/C (compound 0.316 µM) was 84.4% [middle of 4 runs]; the viability, T/C (compound 1 µM) was 70.1% [middle of 4 runs]; the viability, T/C (compound 10 µM) was 56.8% [middle of 4 runs]. For the same compound, for the setting “curve of compound”, the IC50 is 8.36 µM and > 10 µM.

In the case of `Cc1nc(NC(=O)N2CCCC2C(N)=O)sc1-c1ccnc(C(C)(C)C(F)(F)F)c1` (stereo not drawn), the viability, T/C by setting is: (compound 0.0316 µM) 98.6% [middle of 8 runs]; (compound 0.1 µM) 97.1% [middle of 8 runs]; (compound 0.316 µM) 97% [middle of 8 runs]; (compound 1 µM) 99.7% [middle of 8 runs]; (compound 3.16 µM) 90.8% [middle of 8 runs]; (compound 10 µM) 81.6% [middle of 8 runs]. Moreover, for the setting “compound alone, run of 06/12/2023”, the IC50 is over 10 µM.
